According to article PMC9223267, “Serine hydroxymethyltransferase as a potential target of antibacterial agents acting synergistically with one-carbon metabolism-related inhibitors” (Communications Biology, 2022):
Values joined by “and” are separate entries in the source; they are usually repeats but may differ in a detail not shown here. Equal entries are not always repeated. “Also recorded” adds a separate entry of the source. Where two headings read alike, the source gives them in different places.

Legend:
Caski cells = assay: Cell cytotoxicity assay (Cell Counting Kit-8, 5 days); type: cell-based, human; conditions: with each cell line (Caski, Hep-2 and Calu-3)
Description: After serial dilution, 100 μL of FBS-containing medium including the cells was added to each well of the plate. […] All CC50 determining assays were conducted in duplicate or triplicate[39],[40].

S. aureus = assay: Antibacterial activity evaluation (turbidity, OD600); type: cell-based, Staphylococcus aureus (ATCC29213); conditions: Staphylococcus aureus, S. aureus ATCC29213
Description: (§1) E. faecium and E. faecalis were diluted to turbidity equivalents that matched 1.0 McFarland (McF) standard in distilled water (S. aureus and E. coli were also diluted to 0.5 McF), and additionally diluted 1:200 in Mueller–Hinton (MH) broth. The designated concentrations of the tested compounds were prepared by ten-fold serial dilutions directly in 96-well microtiter plates (IWAKI, Shizuoka, Japan), as previously described. […] The other compounds were serially diluted from 20 μM downwards (final concentration, 10 μM). […] Positive control wells included bacteria without any compound, and the negative control wells only contained MH broth. […] The optical density at 600 nm (OD600) was measured using a GloMax microtiter plate reader (Promega, WI, USA), and the EC50 values of each test compound and standard error were calculated by Microsoft Excel function, AVERAGE and STDEV/SQRT.

efmSHMT [1] = type: binding, Enterococcus faecium; conditions: DSF; final drug concentration 50 μM
Description: Protein samples were prepared as 20 μL aliquots containing 0.1 mg/mL protein (efmSHMT/ecSHMT), 1 μL of the ligand in DMSO (final drug concentration, 50 μM) and 2% or 4% SYPRO Orange (Invitrogen, MA, USA). […] Melting points were evaluated as the half-point of the maximum intensity of each curve.

E. faecium [2] = assay: Antibacterial activity evaluation (turbidity, OD600); type: cell-based, Enterococcus faecium (JCM5804); conditions: Enterococcus faecium
Description: as §1

efmSHMT [3] = target: efmSHMT (Enterococcus faecium, UniProt I3U4H4, M1V); assay: biochemical; type: binding; conditions: 5 μM efmSHMT; 10 mM Gly and 100 μM Ser; Cheng-Prusoff
Chain of efmSHMT (Enterococcus faecium, UniProt I3U4H4, M1V) (I3U4H4 whole entry M1V): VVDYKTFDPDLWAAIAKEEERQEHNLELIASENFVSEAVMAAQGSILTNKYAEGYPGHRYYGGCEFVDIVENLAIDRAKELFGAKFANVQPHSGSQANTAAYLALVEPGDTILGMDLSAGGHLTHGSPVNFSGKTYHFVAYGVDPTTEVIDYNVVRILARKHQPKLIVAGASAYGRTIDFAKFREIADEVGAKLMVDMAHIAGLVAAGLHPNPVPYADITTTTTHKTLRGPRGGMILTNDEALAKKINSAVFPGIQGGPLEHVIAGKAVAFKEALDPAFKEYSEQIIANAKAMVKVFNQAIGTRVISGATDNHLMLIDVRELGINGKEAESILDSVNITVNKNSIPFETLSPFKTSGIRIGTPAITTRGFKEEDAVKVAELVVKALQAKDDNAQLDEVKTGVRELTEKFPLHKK
Description: After adding Me-THF, the efmSHMT solution was incubated for 30 min at room temperature. The optical density at 500 and 600 nm (OD500 and OD600) were then measured using a nanodrop spectrophotometer[24],[25]. OD600 was used as the background. After detection, each concentration of inhibitor was added to the efmSHMT solution and incubated for 30 min at room temperature. OD500 and OD600 were measured. The relative OD500 intensity was calculated as relative OD500 = (OD500 – OD600)/(MAXOD500 – OD600), where MAXOD500 is the average OD500 value in the presence of 1000, 2000 and 4000 μM Me-THF without inhibitors. […] Here, IC50 is the concentration of inhibitor added to the efmSHMT solution and [Me-THF] is the EC50 in the presence of the inhibitor concentration. [EC50 without inhibitor] is the EC50 of Me-THF in the absence of the inhibitor.

E. faecium [4] = assay: Antibacterial assay with an excess concentration of biomolecules (Ser, Gly, inosine, dT, FA); type: cell-based, Enterococcus faecium (JCM5804)
Description: as §1
The ratio of the control EC50 (no competitors added) to the experimental EC50 (competitors added) was calculated for each test substance.

E. faecalis = assay: Antibacterial activity evaluation (turbidity, OD600); type: cell-based, Enterococcus faecalis (JCM7783); conditions: Enterococcus faecalis, E. faecalis JCM7783
Description: as §1

E. faecium [5] = assay: Bacterial viability assay (Microbial Viability Assay Kit-WST, OD450); type: cell-based, Enterococcus faecium; conditions: for Relative bacterial viability: single values
Description: Living E. faecium were determined using the Microbial Viability Assay Kit-WST (DOJINDO, Tokyo, Japan). […] Positive control wells included bacteria seeded into MH broth without compounds, and the negative control wells contained MH broth only. […] Five microlitres of the colouring reagent were added to each well of the 96-well plate every 2 h after starting incubation with each compound.

E. coli = assay: Antibacterial activity evaluation (turbidity, OD600); type: cell-based, Escherichia coli (ATCC25922); conditions: Escherichia coli, E. coli ATCC25922
Description: as §1

[6] = read-out: pEC50 ± S.E. (converted)
[7] = Enterococcus faecium, JCM5804, E. faecium JCM5804, 1 mM Inosine, read-out: EC50
[8] = Enterococcus faecium, JCM5804, E. faecium JCM5804, 1 mM Inosine, read-out: pEC50 ± S.E. (converted)
[9] = Enterococcus faecium, JCM5804, E. faecium JCM5804, 1 mM deoxythymidine, read-out: EC50
[10] = Enterococcus faecium, JCM5804, E. faecium JCM5804, 1 mM deoxythymidine, read-out: pEC50 ± S.E. (converted)
[11] = Enterococcus faecium, JCM5804, E. faecium JCM5804, 10 mM Glycine, read-out: EC50
[12] = Enterococcus faecium, JCM5804, E. faecium JCM5804, 10 mM Glycine, read-out: pEC50 ± S.E. (converted)
[13] = Enterococcus faecium, JCM5804, E. faecium JCM5804, 100 mM Serine, read-out: EC50
[14] = Enterococcus faecium, JCM5804, E. faecium JCM5804, 100 mM Serine, read-out: pEC50 ± S.E. (converted)
[15] = Enterococcus faecium, JCM5804, E. faecium JCM5804, 0.1 M folate, read-out: EC50
[16] = Enterococcus faecium, JCM5804, E. faecium JCM5804, 0.1 M folate, read-out: pEC50 ± S.E. (converted)

| Compound | selectivity index (S.I.): CC50 against each cell line / EC50 against E. faecium (Caski cells) | EC50 (S. aureus; read-out: EC50) [µM] | EC50 (S. aureus; [6]) [µM] | ΔTm (thermal stability of efmSHMT) (efmSHMT [1]) | Ki (efmSHMT [3]) | EC50 (E. faecium [4]; [7]) [µM] | EC50 (E. faecium [4]; [8]) [µM] | EC50 (E. faecium [4]; [9]) [µM] | EC50 (E. faecium [4]; [10]) [µM] | EC50 (E. faecium [4]; [11]) [µM] | EC50 (E. faecium [4]; [12]) [µM] | EC50 (E. faecium [4]; [13]) [µM] | EC50 (E. faecium [4]; [14]) [µM] | EC50 (E. faecium [4]; [15]) [µM] | EC50 (E. faecium [4]; [16]) [µM] | EC50 (E. faecalis; read-out: EC50) [µM] | EC50 (E. faecalis; [6]) [µM] | EC50 (E. coli; read-out: EC50) [µM] | EC50 (E. coli; [6]) [µM] | further results |
| --- | --- | --- | --- | --- | --- | --- | --- | --- | --- | --- | --- | --- | --- | --- | --- | --- | --- | --- | --- | --- |
| CN(Cc1cnc2nc(N)nc(N)c2n1)c1ccc(C(=O)N[C@@H](CCC(=O)O)C(=O)O)cc1 [MTX, methotrexate] | less selective than (+)-SHIN-1, TMP and PMX | > 100 | > 100 | did not stabilise efmSHMT significantly | did not change the OD500; also recorded: did not bind | 0.0024 | 0.00251 | > 100 | > 100 | 0.0028 | 0.00251 | 0.0026 | 0.00251 | 8.5 | 7.94 | 14 | 15.8 | > 100 | > 100 | EC50 (E. faecium [2]; JCM5804, E. faecium JCM5804, read-out: EC50): 3.6 nM; EC50 (E. faecium [2]; JCM5804, E. faecium JCM5804, read-out: pEC50 ± S.E. (converted)): 3.98 nM; Relative bacterial viability (E. faecium [5]; 2 nM, 0 hours): 0.02233 and 0.0177 and 0.02678 and 0.02266 and 0.01761 and 0.017 and 0.0195 and 0.01799; Relative bacterial viability (E. faecium [5]; 2 nM, 2 hours): 0.03007 and 0.03198 and 0.04012 and 0.03501 and 0.02569 and 0.02735 and 0.02947 and 0.02784; Relative bacterial viability (E. faecium [5]; 2 nM, 6 hours): 0.8015 and 0.7552 and 0.8948 and 0.8943 and 0.5687 and 0.5754 and 0.5661 and 0.5425; Relative bacterial viability (E. faecium [5]; 2 nM, 8 hours): 0.6487 and 0.7535 and 0.8184 and 0.7635 and 0.7144 and 0.6621 and 0.6673 and 0.7812; Relative bacterial viability (E. faecium [5]; 2 nM, 10 hours): 0.7053 and 0.6673 and 0.7036 and 0.6902; Relative bacterial viability (E. faecium [5]; 2 nM, 12 hours): 0.8527 and 0.9211 and 0.863 and 0.9139 and 0.786 and 0.828 and 0.8102 and 0.8671; Relative bacterial viability (E. faecium [5]; 20 nM, 0 hours): 0.02944 and 0.02382 and 0.02242 and 0.01876 and 0.02362 and 0.02115 and 0.02309 and 0.02203; Relative bacterial viability (E. faecium [5]; 20 nM, 2 hours): 0.04282 and 0.03899 and 0.03091 and 0.03386 and 0.03007 and 0.02907 and 0.03321 and 0.0351; Relative bacterial viability (E. faecium [5]; 20 nM, 4 hours): 0.09761 and 0.08481 and 0.06333 and 0.08156 and 0.05837 and 0.05915 and 0.09197 and 0.0766; Relative bacterial viability (E. faecium [5]; 20 nM, 6 hours): 0.09779 and 0.1224 and 0.09629 and 0.09367 and 0.1125 and 0.1318 and 0.1324 and 0.1243; Relative bacterial viability (E. faecium [5]; 20 nM, 8 hours): 0.09766 and 0.1007 and 0.1109 and 0.1082 and 0.07161 and 0.0792 and 0.1047 and 0.1064; Relative bacterial viability (E. faecium [5]; 20 nM, 10 hours): 0.1166 and 0.1064 and 0.08667 and 0.1003 and 0.08673 and 0.1012 and 0.1144 and 0.09737; Relative bacterial viability (E. faecium [5]; 20 nM, 12 hours): 0.09054 and 0.1107 and 0.09534 and 0.1014 and 0.09177 and 0.09711 and 0.09672 and 0.1035; EC50 (E. faecium [5]; Enterococcus faecium, relative bacterial viability after 14 h incubation): 8.4 nM |
| Cc1n[nH]c2c1C(c1cc(N3CCCC3)cc(C(F)(F)F)c1)(C(C)C)C(C#N)=C(N)O2 (centres unmarked) [SHMT-IN-2] | less selective than (+)-SHIN-1, TMP and PMX | ≥ 100 | ≥ 100 | did not stabilise efmSHMT significantly | did not change the OD500; also recorded: did not bind | 3.1 | 3.16 | 2.9 | 3.16 | 3 | 3.16 | 4 | 3.98 | 2.9 | 3.16 | > 100 | > 100 | > 100 | > 100 | EC50 (E. faecium [2]; E. faecium JCM5804, read-out: EC50): 2900 nM; EC50 (E. faecium [2]; E. faecium JCM5804, read-out: pEC50 ± S.E. (converted)): 3160 nM; EC50 (E. faecium [4]; E. faecium JCM5804, 0.1 M folate): independent of FA; Relative bacterial viability (E. faecium [5]; 40 μM, 0 hours): 0.01862 and 0.0174 and 0.0205 and 0.01931 and 0.02646 and 0.02349 and 0.02966 and 0.03101; Relative bacterial viability (E. faecium [5]; 40 μM, 2 hours): 0.03093 and 0.0302 and 0.02505 and 0.02814 and 0.02877 and 0.02998 and 0.036 and 0.03921; Relative bacterial viability (E. faecium [5]; 40 μM, 6 hours): 0.3579 and 0.3453 and 0.3941 and 0.3482 and 0.392 and 0.3797 and 0.4394 and 0.4307; Relative bacterial viability (E. faecium [5]; 40 μM, 8 hours): 0.4949 and 0.5317 and 0.4381 and 0.3998 and 0.3519 and 0.3235 and 0.4823 and 0.3754; Relative bacterial viability (E. faecium [5]; 40 μM, 10 hours): 0.5237 and 0.542 and 0.4699 and 0.39 and 0.5132 and 0.4488 and 0.4691 and 0.4904; Relative bacterial viability (E. faecium [5]; 40 μM, 12 hours): 0.55 and 0.5489 and 0.5001 and 0.5313 and 0.5571 and 0.5294 and 0.6254 and 0.5482; Relative bacterial viability (E. faecium [5]; 80 μM, 0 hours): 0.02012 and 0.02269 and 0.02791 and 0.02552 and 0.02349 and 0.02305 and 0.03984 and 0.03245; Relative bacterial viability (E. faecium [5]; 80 μM, 2 hours): 0.03305 and 0.03431 and 0.03897 and 0.0377 and 0.0302 and 0.03755 and 0.04307 and 0.03606; Relative bacterial viability (E. faecium [5]; 80 μM, 4 hours): 0.03849 and 0.03773 and 0.03537 and 0.04204 and 0.0354 and 0.0391 and 0.04337 and 0.03653; Relative bacterial viability (E. faecium [5]; 80 μM, 6 hours): 0.04463 and 0.04595 and 0.05326 and 0.05339 and 0.04373 and 0.04075 and 0.04467 and 0.04119; Relative bacterial viability (E. faecium [5]; 80 μM, 8 hours): 0.04711 and 0.04935 and 0.05233 and 0.0524 and 0.04018 and 0.04838 and 0.04621 and 0.04757; Relative bacterial viability (E. faecium [5]; 80 μM, 10 hours): 0.04986 and 0.05353 and 0.04783 and 0.04892; Relative bacterial viability (E. faecium [5]; 80 μM, 12 hours): 0.04784 and 0.03996 and 0.04751 and 0.04436 and 0.04726 and 0.03481 and 0.04716 and 0.0494; EC50 (bacterial viability) (E. faecium [5]; relative bacterial viability after 14 h incubation): weaker activity than the turbidity detection result |
